Data taken from ChEMBL document CHEMBL1155244, “Identification of a bioactive compound isolated from Brazilian propolis type 6” (Bioorg Med Chem, 2009).
≈ marks a conversion by molar mass, not a printed value.

Columns and labels:
[1] = test system: HeLa; assay: Cytotoxicity against human HeLa cells after 24 to 48 hrs by MTT assay; type: functional, cell-based
[2] = test system: Streptococcus mutans; assay: Antibacterial activity against Streptococcus mutans UA159 after 24 hrs by agar diffusion method; type: functional; conditions: UA159, 24 h
[3] = test system: Streptococcus sobrinus; assay: Antibacterial activity against Streptococcus sobrinus 6715 after 24 hrs by agar diffusion method; type: functional; conditions: Streptococcus sobrinus, 6715, 24 h
[4] = test system: Streptococcus oralis; assay: Antibacterial activity against Streptococcus oralis PB182 after 24 hrs by agar diffusion method; type: functional; conditions: PB182, 24 h
[5] = test system: Streptococcus gordonii; assay: Antibacterial activity against Streptococcus gordonii 10558 after 24 hrs by agar diffusion method; type: functional; conditions: Streptococcus gordonii, 10558, 24 h
[6] = test system: Staphylococcus aureus; assay: Antibacterial activity against Staphylococcus aureus 25923 after 24 hrs by agar diffusion method; type: functional; conditions: Staphylococcus aureus, 25923, 24 h
[7] = test system: Actinomyces naeslundii; assay: Antimicrobial activity against Actinomyces naeslundii 12104 after 24 hrs by agar diffusion method; type: functional; conditions: Actinomyces naeslundii, 12104, 24 h
[8] = test system: Streptococcus mutans; assay: Antibacterial activity against Streptococcus mutans UA159 assessed as total biofilm adherence inhibition after 18 hrs by microtechnique; type: functional
[9] = test system: Streptococcus sobrinus; assay: Antibacterial activity against Streptococcus sobrinus 6715 assessed as total biofilm adherence inhibition after 18 hrs by microtechnique; type: functional

CC(C)=CCC1=C(O)[C@@]2(C(=O)c3ccccc3)C(=O)[C@](CC=C(C)C)(C[C@H](CC=C(C)C)C2(C)C)C1=O
IC50 [1]: 3300 nM

CC(C)=CC[C@H]1C[C@@]2(CC=C(C)C)C(=O)[C@](C(=O)c3ccccc3)(C(=O)C3=C2O[C@H](C(C)(C)O)C3)C1(C)C [HYPERIBONE A]
IC50 [1]: 176 nM | MBC [2]: 53 µg/mL (≈ 102 µM) | MIC [2]: 3.3 µg/mL (≈ 6.36 µM) | MBC [3]: 53 µg/mL (≈ 102 µM) | MIC [3]: 3.3 µg/mL (≈ 6.36 µM) | MBC [4]: 26 µg/mL (≈ 50.1 µM) | MIC [4]: 1.65 µg/mL (≈ 3.18 µM) | MBC [5]: 26 µg/mL (≈ 50.1 µM) | MIC [5]: 1.65 µg/mL (≈ 3.18 µM) | MBC [6]: 5.85 µg/mL (≈ 11.3 µM) | MIC [6]: 0.73 µg/mL (≈ 1.41 µM) | MBC [7]: 6.6 µg/mL (≈ 12.7 µM) | MIC [7]: 1.65 µg/mL (≈ 3.18 µM) | Activity [8]: 1.65 µg/mL | Activity [9]: 1.65 µg/mL
